In PubChem BioAssay (NCI):
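Step 1: Grow cells in 96-well plates. Step 2: Expose to compound for 48 hours at 5 concentrations. Step 3: Interpolate endpoints linearly; if unreached, use highest concentration. GI50: concentration for 50% inhibition of growth. The concentration for full growth arrest is given as TGI.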

How the values were obtained:
Assay in all cases: inhibition of tumour cell growth, NCI panel, 48 h
NCI/ADR-RES ovarian = test system: NCI/ADR-RES ovarian
PC-3 prostate = test system: PC-3 prostate
DU-145 prostate = test system: DU-145 prostate
OVCAR-4 ovarian = test system: OVCAR-4 ovarian
CAKI-1 renal = test system: CAKI-1 renal
SNB-75 CNS = test system: SNB-75 CNS
HOP-92 NSCLC = test system: HOP-92 NSCLC
NCI-H522 lung = test system: NCI-H522 lung
UACC-257 melanoma = test system: UACC-257 melanoma
IGROV1 ovarian = test system: IGROV1 ovarian

Row | Compound | TGI (NCI/ADR-RES ovarian) | TGI (PC-3 prostate) | TGI (DU-145 prostate) | TGI (OVCAR-4 ovarian) | TGI (CAKI-1 renal) | TGI (SNB-75 CNS) | TGI (HOP-92 NSCLC) | TGI (NCI-H522 lung) | TGI (UACC-257 melanoma) | TGI (IGROV1 ovarian) | GI50 (NCI/ADR-RES ovarian) | GI50 (PC-3 prostate) | GI50 (DU-145 prostate) | GI50 (OVCAR-4 ovarian) | GI50 (CAKI-1 renal) | GI50 (SNB-75 CNS) | GI50 (HOP-92 NSCLC) | GI50 (NCI-H522 lung) | GI50 (UACC-257 melanoma) | GI50 (IGROV1 ovarian)
1 | N=Nc1c(OC(=O)Nc2cccc(Cl)c2)[nH]c2ccccc12 | 21.4 µM | 14.6 µM | 20.3 µM | 19.6 µM | 15.2 µM | 17.9 µM | 18.1 µM | 11.3 µM | 26.7 µM | 21.4 µM |  |  |  |  |  |  |  |  |  | 
2 | COc1cc2c3c(n(C)c(=O)c2cc1OC)-c1cc2c(cc1/C3=C\CCN)OCO2 | 2.56 µM | 2.94 µM | 11.4 µM | 6.54 µM | 3.02 µM | > 59.9 µM | 26.5 µM | > 100 µM | 16.9 µM | > 53.6 µM | 0.272 µM | 0.324 µM | 0.362 µM | 0.792 µM | 0.112 µM | 6.05 µM | 1.32 µM | 0.851 µM | 1.03 µM | 0.882 µM
3 | CN(C(=O)c1ccc(C(F)(F)F)cc1)c1ccc(Oc2ccc3c(c2)cc(C(=O)N2CCN(Cc4ccc(OC(F)F)cc4)CC2)n3C)nc1 | > 100 µM | > 100 µM | > 100 µM | > 49.7 µM | > 100 µM | > 84 µM | > 88.2 µM | > 90 µM | > 100 µM | > 100 µM | 0.437 µM | 2.24 µM | > 100 µM | < 0.01 µM | 2.27 µM | 11.7 µM | 3.02 µM | 0.677 µM | 0.138 µM | > 100 µM
4 | Cc1ccccc1S(=O)(=O)OC1NS(=O)(=O)c2ccccc21 (stereo unspecified) | > 100 µM | > 100 µM | > 100 µM | > 100 µM | > 100 µM | > 100 µM | > 100 µM | > 100 µM | > 100 µM | > 100 µM |  |  |  |  |  |  |  |  |  | 
5 | COc1cccc(-c2nc(-c3ccc(NC(=O)C(C)C)cc3)[nH]c2-c2ccnc(Br)c2)c1 | > 100 µM | > 100 µM | > 100 µM | > 100 µM | > 100 µM | > 100 µM | 48.4 µM | > 100 µM | > 100 µM | > 100 µM | 3.03 µM | 3.02 µM | 3.86 µM | 3.54 µM | 2.73 µM | 0.488 µM | 3.58 µM | 2.8 µM | 4.02 µM | 3.55 µM
6 | O=C(Nc1ccc(Cl)cc1)c1cccc(NC2=C(Cl)C(=O)N(Cc3ccccc3)C2=O)c1 | 24.3 µM | 21.2 µM | 19.7 µM | 34.8 µM | 15.7 µM | 25.1 µM | 21.5 µM | 29 µM | 43.3 µM | 18.1 µM | 10.3 µM | 9.12 µM | 6.39 µM | 12.5 µM | 3.5 µM | 8.88 µM | 9.85 µM | 7.09 µM | 15 µM | 2.61 µM
7 | O=C(/C=C/c1ccc(Cl)cc1)c1ccc(Nc2ccnc3cc(Cl)ccc23)cc1 | > 100 µM | > 100 µM | > 100 µM | > 100 µM | > 100 µM | > 100 µM | > 100 µM | > 100 µM | > 100 µM | > 100 µM | > 100 µM | > 53.6 µM | 27.6 µM | > 100 µM |  | > 100 µM | > 40.6 µM | > 100 µM | > 100 µM | 48.6 µM
8 | CN1CCN(CCCn2c(=O)c3sc4ncccc4c3n3nnc(-c4ccccc4)c23)CC1 | 14.2 µM | 13.4 µM | 12.2 µM | 14 µM | 13 µM | 13.3 µM | 12.9 µM | 14.4 µM | 7.62 µM | 13.8 µM | 7.19 µM | 6.27 µM | 5.85 µM | 7.27 µM | 6.16 µM | 6.82 µM | 5.8 µM | 7.23 µM | 2.27 µM | 5.93 µM
9 | COc1ccc(-c2nnc(COc3ccc(C(=O)/C=C/c4ccco4)cc3)o2)cc1 | 25 µM | 11.8 µM | 5.72 µM | 26.6 µM | 19.7 µM | 14.5 µM | 16.9 µM | 5.62 µM | 10.5 µM | 4.38 µM | 8.62 µM | 3.33 µM | 2.33 µM | 12.8 µM | 6.11 µM | 3.04 µM | 2.9 µM | 2.59 µM | 2.94 µM | 2.08 µM
10 | Cc1cc(I)cc(CN(C)CCCN2CCCCC2)c1O | 59 µM | 32.9 µM | 33.8 µM | > 100 µM | 35.3 µM | 34.8 µM | 38.6 µM | 31.4 µM | 31.9 µM | 32.5 µM | 21.9 µM | 15.4 µM | 16.7 µM | 32.7 µM | 17 µM | 16.6 µM | 11.6 µM | 16.7 µM | 16.4 µM | 15.4 µM
11 | Fc1cc2[nH]ncc2c2c3c(c(-c4cn[nH]c4)nc12)CCCC3 | 7.9 µM | 33.7 µM | 15.5 µM | 8.14 µM | 7.08 µM | 2.32 µM | 5.66 µM | 6.12 µM | 5.69 µM | 9.56 µM | 2.38 µM | 1.77 µM | 1.09 µM | 1.69 µM | 0.398 µM | 0.994 µM | 1.48 µM | 0.829 µM | 1.72 µM | 0.521 µM
12 | Nc1ncnc2c1nnn2C1OC(CO)C(O)C1O (stereo unspecified) | 9.32 µM | 5.38 µM | 1.91 µM | 8.48 µM | 2.88 µM | 16.9 µM | 7 µM | 4.51 µM | 10.9 µM | 3.95 µM |  | 0.247 µM | 0.144 µM |  |  |  |  |  |  | 
13 | COc1c(Cl)c(=O)oc2ccc(Cl)cc12 | > 100 µM | > 100 µM | > 100 µM | > 100 µM | > 100 µM | > 100 µM | > 100 µM | > 100 µM | > 100 µM | > 100 µM |  |  |  |  |  |  |  |  |  | 
14 | CCN(CC)c1ccc(-c2cc(-c3cc(OC)c(OC)c(OC)c3)nc(N3CCOCC3)c2C#N)cc1 | 27.8 µM | > 100 µM | > 100 µM | > 100 µM | > 53.2 µM | 12 µM | 4.42 µM | 83.3 µM | > 100 µM | > 100 µM | 0.709 µM | 1.27 µM | 2.18 µM | 7.33 µM | 0.366 µM | 1.02 µM | 0.796 µM | 7.07 µM | 2.57 µM | 2.83 µM
